Results from BindingDB's records for doi:10.1016/0167-0115(94)90537-1 (Universit&Eacute, 1994).
Square brackets hold non-standard residues; d marks the D form. Peptide text beside a SMILES is read from it. ξ: configuration not given here. Ile(3ξ) = CCC(C)[C@H](N)C(=O)O

Target: T1, VIP peptides (Rattus norvegicus, UniProt P01283)
T1 sequence (P01283 whole entry): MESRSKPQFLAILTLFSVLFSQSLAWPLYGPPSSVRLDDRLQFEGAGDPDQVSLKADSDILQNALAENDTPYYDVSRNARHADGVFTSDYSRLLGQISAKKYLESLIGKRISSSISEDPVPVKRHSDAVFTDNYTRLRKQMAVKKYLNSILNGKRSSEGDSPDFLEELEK

| SMILES | Ki |
| --- | --- |
| CC[C@H](C)[C@H](NC(=O)[C@H](CO)NC(=O)[C@H](CC(N)=O)NC(=O)[C@H](CC(C)C)NC(=O)[C@H](Cc1ccc(O)cc1)NC(=O)[C@H](CCCCN)NC(=O)[C@H](CCCCN)NC(=O)[C@@H](NC(=O)[C@H](C)NC(=O)[C@H](CCSC)NC(=O)[C@H](CCC(N)=O)NC(=O)[C@H](CCCCN)NC(=O)[C@H](CCCN=C(N)N)NC(=O)[C@H](CC(C)C)NC(=O)[C@H](CCCN=C(N)N)NC(=O)[C@@H](NC(=O)[C@H](Cc1ccc(O)cc1)NC(=O)[C@H](CC(N)=O)NC(=O)[C@H](CC(=O)O)NC(=O)[C@@H](NC(=O)[C@H](Cc1ccccc1)NC(=O)[C@@H](NC(=O)[C@H](C)NC(=O)[C@H](CC(=O)O)NC(=O)[C@H](CO)NC(=O)[C@H](Cc1cnc[nH]1)NC(C)=O)C(C)C)[C@@H](C)O)[C@@H](C)O)C(C)C)C(=O)N[C@@H](CC(C)C)C(=O)N[C@@H](CC(N)=O)C(N)=O [Acetyl-His1-VIP] | 15 nM |
| [C][C][C]([C])[C@H]([N]C(=O)[C][N]C(=O)[C@H]([C][C]C([O])=O)[N]C(=O)[C@@H]([N])[C][O])C(=O)[N][C@@H]([C]c1ccccc1)C(=O)[N][C@H](C(=O)[N][C@@H]([C]C([O])=O)C(=O)[N][C@@H]([C][O])C(=O)[N][C@@H]([C]c1ccc([O])cc1)C(=O)[N][C@@H]([C][O])C(=O)[N][C@@H]([C][C][C]N=C([N])[N])C(=O)[N][C@@H]([C]c1ccc([O])cc1)C(=O)[N][C@@H]([C][C][C]N=C([N])[N])C(=O)[N][C@@H]([C][C][C][C][N])C(=O)[N][C@@H]([C][C]C([N])=O)C(=O)[N][C@@H]([C][C]S[C])C(=O)[N][C@@H]([C])C(=O)[N][C@@H]([C]([C])[C])C(=O)[N][C@@H]([C][C][C][C][N])C(=O)[N][C@@H]([C][C][C][C][N])C(=O)[N][C@@H]([C]c1ccc([O])cc1)C(=O)[N][C@@H]([C][C]([C])[C])C(=O)[N][C@@H]([C])C(=O)[N][C@@H]([C])C(=O)[N][C@@H]([C]([C])[C])C(=O)[N][C@@H]([C][C]([C])[C])C([N])=O)[C@@H]([C])[O] [PACAP(2-27)] | 30 nM |
| CCC(C)[C@H](NC(=O)CNC(=O)[C@@H](N)CC(=O)O)C(=O)N[C@@H](Cc1ccccc1)C(=O)N[C@H](C(=O)N[C@@H](CC(=O)O)C(=O)N[C@@H](CO)C(=O)N[C@@H](Cc1ccc(O)cc1)C(=O)N[C@@H](CO)C(=O)N[C@@H](CCCN=C(N)N)C(=O)N[C@@H](Cc1ccc(O)cc1)C(=O)N[C@@H](CCCN=C(N)N)C(=O)N[C@@H](CCCCN)C(=O)N[C@@H](CCC(N)=O)C(=O)N[C@@H](CCSC)C(=O)N[C@@H](C)C(=O)N[C@H](C(=O)N[C@@H](CCCCN)C(=O)N[C@@H](CCCCN)C(=O)N[C@@H](Cc1ccc(O)cc1)C(=O)N[C@@H](CC(C)C)C(=O)N[C@@H](C)C(=O)N[C@@H](C)C(=O)N[C@H](C(=O)N[C@@H](CC(C)C)C(N)=O)C(C)C)C(C)C)[C@@H](C)O (some centres undefined) [PACAP(3-27)] (H-DG[Ile(3ξ)]FTDSYSRYRKQMAVKKYLAAVL-NH2) | 2000 nM |
| CCC(C)[C@H](NC(=O)CN)C(=O)N[C@@H](Cc1ccccc1)C(=O)N[C@H](C(=O)N[C@@H](CC(=O)O)C(=O)N[C@@H](CO)C(=O)N[C@@H](Cc1ccc(O)cc1)C(=O)N[C@@H](CO)C(=O)N[C@@H](CCCN=C(N)N)C(=O)N[C@@H](Cc1ccc(O)cc1)C(=O)N[C@@H](CCCN=C(N)N)C(=O)N[C@@H](CCCCN)C(=O)N[C@@H](CCC(N)=O)C(=O)N[C@@H](CCSC)C(=O)N[C@@H](C)C(=O)N[C@H](C(=O)N[C@@H](CCCCN)C(=O)N[C@@H](CCCCN)C(=O)N[C@@H](Cc1ccc(O)cc1)C(=O)N[C@@H](CC(C)C)C(=O)N[C@@H](C)C(=O)N[C@@H](C)C(=O)N[C@H](C(=O)N[C@@H](CC(C)C)C(=O)NCC(=O)N[C@@H](CCCCN)C(=O)N[C@@H](CCCN=C(N)N)C(=O)N[C@@H](Cc1ccc(O)cc1)C(=O)N[C@@H](CCCCN)C(=O)N[C@@H](CCC(N)=O)C(=O)N[C@@H](CCCN=C(N)N)C(=O)N[C@H](C(=O)N[C@@H](CCCCN)C(=O)N[C@@H](CC(N)=O)C(=O)N[C@@H](CCCCN)C(N)=O)C(C)C)C(C)C)C(C)C)[C@@H](C)O (some centres undefined) [PACAP(4-38)] (H-G[Ile(3ξ)]FTDSYSRYRKQMAVKKYLAAVLGKRYKQRVKNK-NH2) | 800 nM |

Further lines, results first:

| Ki | SMILES |
| --- | --- |
| 30 nM | CC[C@H](C)[C@H](NC(=O)[C@H](C)NC(=O)[C@H](CC(=O)O)NC(=O)[C@H](CO)NC(=O)[C@@H](N)Cc1cnc[nH]1)C(=O)N[C@@H](Cc1ccccc1)C(=O)N[C@H](C(=O)N[C@@H](CCC(N)=O)C(=O)N[C@@H](CCC(N)=O)C(=O)N[C@@H](Cc1ccc(O)cc1)C(=O)N[C@@H](CO)C(=O)N[C@@H](CCCCN)C(=O)N[C@@H](CC(C)C)C(=O)N[C@@H](CC(C)C)C(=O)N[C@@H](C)C(=O)N[C@@H](CCCCN)C(=O)N[C@@H](CC(C)C)C(=O)N[C@@H](C)C(=O)N[C@@H](CC(C)C)C(=O)N[C@@H](CCC(N)=O)C(=O)N[C@@H](CCCCN)C(=O)N[C@@H](Cc1ccc(O)cc1)C(=O)N[C@@H](CC(C)C)C(=O)N[C@@H](C)C(=O)N[C@@H](CO)C(=O)N[C@H](C(=O)N[C@@H](CC(C)C)C(=O)NCC(=O)N[C@@H](CO)C(=O)N[C@@H](CCCNC(=N)N)C(=O)N[C@H](C(=O)N[C@@H](CO)C(=O)N1CCC[C@H]1C(=O)N1CCC[C@H]1C(=O)N1CCC[C@H]1C(N)=O)[C@@H](C)O)[C@@H](C)CC)[C@@H](C)O [CAS_89468-62-2] (H-HSDAIFTQQYSKLLAKLALQKYLASILGSRTSPPP-NH2) |
| 2 nM | CC[C@H](C)[C@H](NC(=O)CNC(=O)[C@H](CCC(=O)O)NC(=O)[C@H](CO)NC(=O)[C@@H](N)Cc1cnc[nH]1)C(=O)N[C@@H](Cc1ccccc1)C(=O)N[C@H](C(=O)N[C@@H](CC(=O)O)C(=O)N[C@@H](CO)C(=O)N[C@@H](Cc1ccc(O)cc1)C(=O)N[C@@H](CO)C(=O)N[C@@H](CCCNC(=N)N)C(=O)N[C@@H](Cc1ccc(O)cc1)C(=O)N[C@@H](CCCNC(=N)N)C(=O)N[C@@H](CCCCN)C(=O)N[C@@H](CCC(N)=O)C(=O)N[C@@H](CCSC)C(=O)N[C@@H](C)C(=O)N[C@H](C(=O)N[C@@H](CCCCN)C(=O)N[C@@H](CCCCN)C(=O)N[C@@H](Cc1ccc(O)cc1)C(=O)N[C@@H](CC(C)C)C(=O)N[C@@H](C)C(=O)N[C@@H](C)C(=O)N[C@H](C(=O)N[C@@H](CC(C)C)C(N)=O)C(C)C)C(C)C)[C@@H](C)O [PACAP(1-27)] |
| 80 nM | CCC(C)[C@H](NC(=O)CNC(=O)[C@H](CC(=O)O)NC(=O)[C@@H](N)CO)C(=O)N[C@@H](Cc1ccccc1)C(=O)N[C@H](C(=O)N[C@@H](CC(=O)O)C(=O)N[C@@H](CO)C(=O)N[C@@H](Cc1ccc(O)cc1)C(=O)N[C@@H](CO)C(=O)N[C@@H](CCCN=C(N)N)C(=O)N[C@@H](Cc1ccc(O)cc1)C(=O)N[C@@H](CCCN=C(N)N)C(=O)N[C@@H](CCCCN)C(=O)N[C@@H](CCC(N)=O)C(=O)N[C@@H](CCSC)C(=O)N[C@@H](C)C(=O)N[C@H](C(=O)N[C@@H](CCCCN)C(=O)N[C@@H](CCCCN)C(=O)N[C@@H](Cc1ccc(O)cc1)C(=O)N[C@@H](CC(C)C)C(=O)N[C@@H](C)C(=O)N[C@@H](C)C(=O)N[C@H](C(=O)N[C@@H](CC(C)C)C(=O)NCC(=O)N[C@@H](CCCCN)C(=O)N[C@@H](CCCN=C(N)N)C(=O)N[C@@H](Cc1ccc(O)cc1)C(=O)N[C@@H](CCCCN)C(=O)N[C@@H](CCC(N)=O)C(=O)N[C@@H](CCCN=C(N)N)C(=O)N[C@H](C(=O)N[C@@H](CCCCN)C(=O)N[C@@H](CC(N)=O)C(=O)N[C@@H](CCCCN)C(N)=O)C(C)C)C(C)C)C(C)C)[C@@H](C)O (some centres undefined) [PACAP(2-38)] (H-SDG[Ile(3ξ)]FTDSYSRYRKQMAVKKYLAAVLGKRYKQRVKNK-NH2) |
| 800 nM | CCC(C)[C@H](NC(=O)CNC(=O)[C@@H](N)CC(=O)O)C(=O)N[C@@H](Cc1ccccc1)C(=O)N[C@H](C(=O)N[C@@H](CC(=O)O)C(=O)N[C@@H](CO)C(=O)N[C@@H](Cc1ccc(O)cc1)C(=O)N[C@@H](CO)C(=O)N[C@@H](CCCN=C(N)N)C(=O)N[C@@H](Cc1ccc(O)cc1)C(=O)N[C@@H](CCCN=C(N)N)C(=O)N[C@@H](CCCCN)C(=O)N[C@@H](CCC(N)=O)C(=O)N[C@@H](CCSC)C(=O)N[C@@H](C)C(=O)N[C@H](C(=O)N[C@@H](CCCCN)C(=O)N[C@@H](CCCCN)C(=O)N[C@@H](Cc1ccc(O)cc1)C(=O)N[C@@H](CC(C)C)C(=O)N[C@@H](C)C(=O)N[C@@H](C)C(=O)N[C@H](C(=O)N[C@@H](CC(C)C)C(=O)NCC(=O)N[C@@H](CCCCN)C(=O)N[C@@H](CCCN=C(N)N)C(=O)N[C@@H](Cc1ccc(O)cc1)C(=O)N[C@@H](CCCCN)C(=O)N[C@@H](CCC(N)=O)C(=O)N[C@@H](CCCN=C(N)N)C(=O)N[C@H](C(=O)N[C@@H](CCCCN)C(=O)N[C@@H](CC(N)=O)C(=O)N[C@@H](CCCCN)C(N)=O)C(C)C)C(C)C)C(C)C)[C@@H](C)O (some centres undefined) [PACAP(3-38)] (H-DG[Ile(3ξ)]FTDSYSRYRKQMAVKKYLAAVLGKRYKQRVKNK-NH2) |
| 800 nM | CCC(C)[C@H](NC(=O)CN)C(=O)N[C@@H](Cc1ccccc1)C(=O)N[C@H](C(=O)N[C@@H](CC(=O)O)C(=O)N[C@@H](CO)C(=O)N[C@@H](Cc1ccc(O)cc1)C(=O)N[C@@H](CO)C(=O)N[C@@H](CCCN=C(N)N)C(=O)N[C@@H](Cc1ccc(O)cc1)C(=O)N[C@@H](CCCN=C(N)N)C(=O)N[C@@H](CCCCN)C(=O)N[C@@H](CCC(N)=O)C(=O)N[C@@H](CCSC)C(=O)N[C@@H](C)C(=O)N[C@H](C(=O)N[C@@H](CCCCN)C(=O)N[C@@H](CCCCN)C(=O)N[C@@H](Cc1ccc(O)cc1)C(=O)N[C@@H](CC(C)C)C(=O)N[C@@H](C)C(=O)N[C@@H](C)C(=O)N[C@H](C(=O)N[C@@H](CC(C)C)C(N)=O)C(C)C)C(C)C)[C@@H](C)O (some centres undefined) [PACAP(4-27)] (H-G[Ile(3ξ)]FTDSYSRYRKQMAVKKYLAAVL-NH2) |
